Reference: the NIST ThermoML archive (doi:10.1007/s10765-005-5572-8)

What was measured:
[1] = xn = mol fraction of the nth substance listed; settings: 298.15 K, 101 kPa, Liquid
[2] = refractive index (Na D-line) (dimensionless); xn = mol fraction of the nth substance listed; settings: 298.15 K, 101 kPa, Liquid, Standard Abbe refractometry
[3] = refractive index (Na D-line) (dimensionless); settings: 298.15 K; 101.33 kPa; Liquid; Standard Abbe refractometry
[4] = 298.15 K; 101 kPa; Liquid

CCCCCC [hexane] + CCCCCCCCCCCCCCCC
x2 = 0
Settings	mass density [kg/m3]	refractive index	viscosity [mPa·s]
[1]	654.8	–	0.294
[2]	–	1.3745	–

CCCCCC [hexane]
Settings	mass density [kg/m3]	refractive index	viscosity [mPa·s]
[3]	–	1.3745	–
[4]	654.8	–	0.294

CC(C)CCCC(C)CCCC(C)CCCCC(C)CCCC(C)CCCC(C)C (stereo not drawn) [2,6,10,15,19,23-hexamethyltetracosane] + CCCCCC
Settings	mass density, [1] [kg/m3]	refractive index, [2]	viscosity, [1] [mPa·s]
x1 = 0.0144	663.9	1.3798	0.405
x1 = 0.0481	682.1	1.3904	0.593
x1 = 0.0748	694.2	1.3976	0.727
x1 = 0.1218	711.9	1.4068	0.971
x1 = 0.1779	728.5	1.4153	1.413
x1 = 0.2858	751.4	1.4244	2.923
x1 = 0.3695	764	1.431	4.685
x1 = 0.4258	770.7	1.4349	6.068
x1 = 0.5661	783.6	1.4435	10.15
x1 = 0.718	793.5	1.4468	15.59
x1 = 0.807	798	1.4468	19.6
x1 = 0.8939	801.7	1.447	24.32
x1 = 0.9593	804.1	1.447	28.41
x1 = 0.9943	805.2	1.4472	30.74
x1 = 1	805.4	1.4474	31.12

C1CCCCC1 [cyclohexane]
Settings	mass density [kg/m3]	refractive index	viscosity [mPa·s]
[3]	–	1.4235	–
[4]	773.7	–	0.898

CC(C)CCCC(C)CCCC(C)CCCCC(C)CCCC(C)CCCC(C)C (stereo not drawn) [2,6,10,15,19,23-hexamethyltetracosane]
Settings	mass density [kg/m3]	refractive index	viscosity [mPa·s]
[3]	–	1.4474	–
[4]	805.4	–	31.12

CCCCCCCCCCCCCCCC [hexadecane]
Settings	mass density [kg/m3]	refractive index	viscosity [mPa·s]
[3]	–	1.434	–
[4]	770.6	–	3.039

CCCCCC [hexane] + CC(C)CCCC(C)CCCC(C)CCCCC(C)CCCC(C)CCCC(C)C
x2 = 0
Settings	mass density [kg/m3]	refractive index	viscosity [mPa·s]
[1]	654.8	–	0.294
[2]	–	1.3745	–

CCCCCC [hexane] + C1CCCCC1
[1], x2 = 0
Settings	mass density [kg/m3]	viscosity [mPa·s]
–	654.8	0.294

C1CCCCC1 [cyclohexane] + CCCCCC
[1]
Settings	mass density [kg/m3]	viscosity [mPa·s]
x1 = 0.0357	658.2	0.295
x1 = 0.1127	665.9	0.301
x1 = 0.2	674.9	0.312
x1 = 0.3288	688.6	0.342
x1 = 0.462	703.5	0.405
x1 = 0.5424	712.9	0.451
x1 = 0.577	717	0.472
x1 = 0.6703	728.4	0.539
x1 = 0.7543	739.2	0.603
x1 = 0.8703	754.9	0.71
x1 = 0.9451	765.5	0.794
x1 = 0.974	769.7	0.842
x1 = 0.9935	772.7	0.894
x1 = 1	773.7	0.898

CCCCCC [hexane] + CCCCCCCCCC
x2 = 0
Settings	mass density [kg/m3]	refractive index	viscosity [mPa·s]
[1]	654.8	–	0.294
[2]	–	1.3745	–

CCCCCCCCCC [decane]
Settings	mass density [kg/m3]	refractive index	viscosity [mPa·s]
[3]	–	1.41	–
[4]	726.2	–	0.859

CCCCCCCCCCCCCCCC [hexadecane] + CCCCCC
Settings	mass density, [1] [kg/m3]	refractive index, [2]	viscosity, [1] [mPa·s]
x1 = 0.0284	662.1	1.3784	0.322
x1 = 0.0757	673.3	1.386	0.382
x1 = 0.1349	685.7	1.395	0.473
x1 = 0.1842	694.9	1.4006	0.559
x1 = 0.266	708.4	1.4087	0.703
x1 = 0.3427	719.1	1.4147	0.864
x1 = 0.4864	735.5	1.4262	1.205
x1 = 0.503	737.1	1.4266	1.24
x1 = 0.6779	751.8	1.4318	1.735
x1 = 0.7546	757	1.432	2.022
x1 = 0.8927	765.1	1.4322	2.562
x1 = 0.9468	768	1.4332	2.805
x1 = 0.9902	770.1	1.434	3.012
x1 = 1	770.6	1.434	3.039

CCCCCCCCCC [decane] + CCCCCC
Settings	mass density, [1] [kg/m3]	refractive index, [2]	viscosity, [1] [mPa·s]
x1 = 0.021	657.1	1.3755	0.296
x1 = 0.0659	662	1.378	0.307
x1 = 0.1584	671.3	1.382	0.337
x1 = 0.233	678.1	1.3854	0.355
x1 = 0.2761	681.8	1.3871	0.377
x1 = 0.3493	687.8	1.39	0.417
x1 = 0.4506	695.3	1.394	0.471
x1 = 0.541	701.4	1.3973	0.518
x1 = 0.6382	707.4	1.4004	0.567
x1 = 0.7836	715.6	1.4045	0.657
x1 = 0.9095	722	1.408	0.772
x1 = 0.9654	724.7	1.4095	0.823
x1 = 0.9936	726	1.4099	0.855
x1 = 1	726.2	1.41	0.859
